Legend:
[1] = target: Methionine aminopeptidase 2 (Plasmodium falciparum, UniProt Q8TA23); assay: Enzyme Inhibiton Assay
Excerpt: (§1) Enzyme affinity assay using Fumarranol analogs with plasmodium falciparum methionine aminopeptidases (PfMetAPs).

[2] = target: T1, Methionine aminopeptidase (Plasmodium falciparum Santa Lucia, UniProt W7G645); assay: Enzyme Inhibiton Assay
T1 sequence (W7G645 whole entry): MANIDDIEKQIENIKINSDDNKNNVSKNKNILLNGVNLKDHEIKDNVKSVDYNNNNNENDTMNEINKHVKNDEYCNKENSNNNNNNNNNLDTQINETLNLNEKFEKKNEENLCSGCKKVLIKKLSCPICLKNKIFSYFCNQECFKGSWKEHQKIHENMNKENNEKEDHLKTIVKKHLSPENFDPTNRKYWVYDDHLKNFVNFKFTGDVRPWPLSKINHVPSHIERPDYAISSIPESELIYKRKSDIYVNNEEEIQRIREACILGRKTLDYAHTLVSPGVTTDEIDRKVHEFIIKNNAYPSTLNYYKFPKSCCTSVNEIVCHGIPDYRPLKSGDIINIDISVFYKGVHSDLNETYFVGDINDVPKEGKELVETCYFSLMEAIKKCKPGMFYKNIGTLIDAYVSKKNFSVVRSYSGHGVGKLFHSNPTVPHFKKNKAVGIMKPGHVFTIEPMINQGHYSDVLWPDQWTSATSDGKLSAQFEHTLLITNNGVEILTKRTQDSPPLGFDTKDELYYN
Excerpt: as §1

Chain of Methionine aminopeptidase 2 (Q8TA23 whole entry): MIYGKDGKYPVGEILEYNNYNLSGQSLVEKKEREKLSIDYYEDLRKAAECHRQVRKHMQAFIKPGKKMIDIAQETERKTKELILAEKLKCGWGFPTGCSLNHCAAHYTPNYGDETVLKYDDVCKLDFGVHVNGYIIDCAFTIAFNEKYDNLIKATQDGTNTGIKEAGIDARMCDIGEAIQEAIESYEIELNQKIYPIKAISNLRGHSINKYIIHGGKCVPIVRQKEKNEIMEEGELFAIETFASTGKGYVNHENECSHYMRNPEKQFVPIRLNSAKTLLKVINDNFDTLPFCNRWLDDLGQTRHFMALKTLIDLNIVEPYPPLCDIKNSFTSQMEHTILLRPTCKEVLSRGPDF

Compound	IC50 [1] [µM]	IC50 [2] [µM]
CO[C@@H]1[C@H](OC(=O)NC(=O)CCl)CC[C@]2(CO2)[C@H]1[C@@]1(C)O[C@@H]1CC=C(C)C [(3R,4S,5S,6R)-5-methoxy-4-[(2R,3R)-2-methyl-3-(3-methylbut-2-en-1-yl)oxiran-2-yl]-1-oxaspiro[2.5]octan-6-yl N-(2-chloroacetyl)carbamate]	2	> 300
CO[C@]12C(=O)CC[C@@]1(CBr)C2[C@@]1(C)O[C@@H]1CC=C(C)C (some centres not stated) [Fumarranol Analog, 6]	> 500	
CO[C@]12C(=O)CC[C@@]1(C=O)C2[C@@]1(C)O[C@@H]1CC=C(C)C (some centres not stated) [Fumarranol Analog, 7]	> 500	
CO[C@]12C(=O)CC[C@@]1(CO)C2/C(C)=C/CC=C(C)C (some centres not stated) [Fumarranol Analog, 8]	> 500	
CO[C@]12C(=O)/C(=C/c3ccco3)C[C@@]1(CO)C2[C@@]1(C)O[C@@H]1CC=C(C)C (some centres not stated) [Fumarranol Analog, 9]	> 500	
CO[C@@]12C([C@@]3(C)O[C@@H]3CC=C(C)C)[C@]1(CO)CC[C@H]2O (some centres not stated) [Fumarranol Analog, 10]	> 500	

Reference: BindingDB's records for doi:10.1016/j.chembiol.2009.01.006 (Johns Hopkins School of Medicine, 2009)
